Laboratory results: patent publication US10201558B2, “Compositions of selenoorganic compounds and methods of use thereof” (Alltech, Inc., priority 2014, dated 2019)
Entries after “also recorded” stand apart in the source; their conditions may differ.

Experiments:
PGC-1α = test: Western blot of PGC-1α protein in IMR-32 cells; type: cell-based, human; conditions: 150 ppb, 24 hours
Protocol: (§1) IMR-32 cells were seeded on 6-well plates and then treated with control and various compounds for 6 hours and 24 hours, as described above. After treatments, cells were rinsed with ice-cold PBS and lysed in ice-cold RIPA buffer containing complete proteinase and phosphatase inhibitors (Thermo-Fisher Scientific, Waltham, Mass.) on ice for 30 min Cell lysates were collected using a cell scraper and transfer pipette and then centrifuged at 12000×g for 30 min at 4° C. to remove the DNA pellet and obtain the protein extract. Protein levels in the supernatant of these cell lysates were determined using the Pierce Micro-BCA protein assay kit (Thermo Scientific-Piece Biotechnology, Rockford, Ill.) according to the manufacturer's protocol […]
(§2) Positive signals on the membrane blots were detected using Amersham's enhanced chemiluminescence (ECL) Western Blotting Prime Detection reagents (GE healthcare Lifescience, Pittsburgh, Pa.). Images of these luminescence signals on the membrane blots were captured using the LI-COR Odyssey Fc Image system (Lincoln, Nebr.). […] Protein band densities in the Western blots were determined using the Li—COR Image studio software or NIH ImageJ software, and then normalized by ACTB protein level in each sample. […]

UCP2 = test: QRT-PCR of UCP2 mRNA in IMR-32 cells; type: cell-based, human; conditions: 150 ppb, 6 hours
Protocol: (§3) Human IMR-32 cells were seeded on gelatinized 6-well (6.5×10^5 cells/well) or 24-well (1.3×10^5 cells/well) plates. Cells were treated with control (0 ppb) or various compounds for 6 hours or 24 hours. Total RNA from these cells was isolated using Trizol (Invitrogen) according to the manufacturer's protocol, and then incubated with DNase I to remove any potential contaminated genomic DNA. Then RNA samples were subjected to real-time PCR analysis using the Applied-Bioscience's RT kit and predesigned Taqman probes (Invitrogen), as described previously (Lan et al EMBO J 2003). The mRNA levels of UCP1, UCP2, UCP3, SLC25A27 (UCP4), SLC25A14 (UCP5), PSEN1, Nicastrin, GSK3B, MAPK11-14, PPARG, APOE, RCAN1, RCAN1.1, G6PC, INSR, IGF1R and FOXO4 were measured. Three to six samples were analyzed in each treatment group. Data were normalized by Actin B (ACTB) or Glyceraldehyde Phosphate Dehydrogenase (GAPDH) mRNA levels in each sample and are presented as mean±SEM of 3-6 samples.

NICASTRIN [1] = test: Western blot of NICASTRIN protein in IMR-32 cells; type: cell-based, human; conditions: 150 ppb, 24 hours
Protocol: as §1, §2

NICASTRIN [2] = test: QRT-PCR of NICASTRIN mRNA in IMR-32 cells (normal, control KD, FOXO4 KD); type: cell-based, human
Protocol: (§4) IMR-32 cells were cultured on 12-well plates for 24 hours and then incubated with FOXO4 siRNA lentiviruses (SC-29650V, Santa Cruz) or control siRNA lentiviruses (sc-108080, Santa Cruz) in the presence of Polybrene (5 μg/ml, Santa Cruz) for 24 hours according to the manufacturer's protocol. These lentiviral siRNA-transfected cells were amplified in normal media for 3 days and then incubated with puromycin for 9-14 days to obtain the stable Control KD (stably transfected with the control siRNAs) and FOXO4KD (stably transfected with Foxo4 siRNAs) cells. These control and Foxo4 KD cells were subjected to cell survival, mitochondrial potential and RNA analysis.
as §3
RNA samples were extracted, purified, and subjected to real-time PCR analysis using Applied-Bioscience's RT kit and Taqman probes (Invitrogen) as described previously in Example 4. Protein samples were also prepared from cell lysates and western blot analysis was performed as previously described in Example 4. Data are presented as mean±SEM of 3 protein samples and 4 RNA samples per group. The relative mRNA and protein expression levels of PSEN1 and NICASTRIN, were measured. All primary antibodies were purchased from Cell Signaling Inc., Beverly, Mass.
(§5) Expression of genes such as Nicastrin and GSK3B (FIGS. 3A, 3C, 3G-3I, 4A, 4F-4H) which are associated with early-onset AD pathogenesis was attenuated by Compound C. […] Therefore, GSK3B and Nicastrin likely are two direct downstream target genes of FOXO4 in neuronal cells in humans.

GSK3B = test: QRT-PCR of GSK3B mRNA in IMR-32 cells (normal, control KD, FOXO4 KD); type: cell-based, human; conditions: for GSK3B mRNA levels: IMR-32 cells
Protocol: as §4, §3, §5

RCAN1.1 = test: Western blot of RCAN1 (RCAN1.1) protein in IMR-32 cells; type: cell-based, human; conditions: 150 ppb, 24 hours
Protocol: as §1, §2
The ability of selenium compounds to regulate RCAN1 expression in IMR-32 cells was also assessed. […]

[3] = system: primary fetal rat neurons; test: Cell survival of primary cortical neurons (cell counts); type: cell-based; conditions: 150 ppb selenium compound(s), 24 hours; Control 100 ± 1.57; mixture: 30 ppb of the element from each compound
Protocol: For primary neurons, dissociated primary cortical neuron cultures were established from E-18 rat embryos as previously described (Lovell et al., Free Radic. Biol. Med. 2000; Lovell et al., Neurobiol. Aging 2001). Studies were carried out on cells 7 days in culture by switching to Locke's solution consisting of 1 mL of 154 mM NaCl, 5.6 mM KCl, 2.3 mM CaCl2, 1.0 mM MgCl2, 3.6 mM NaHCO3, 10 mM glucose, 5 mM HEPES (pH 7.2) with 10 mg/L gentamicin sulfate. Primary neurons were treated for 24 hours in Locke's solution with the indicated selenium and sulfur compounds in Table 5. Cell counts were performed to measure cell survival/toxicity.
The effects of the selenium and sulfur compounds, identified as components of water extracts of selenium-enriched yeast, on neuronal cell survival was also tested. Primary neurons isolated from fetal rat brain were incubated with chemically synthesized individual selenium and sulfur compounds that were identified as components of water extracts of selenium-enriched yeast (Table 5). In this case, the elemental concentration of each compound identified in Table 5 was 150 ppb and, where mixtures were used, the 150 ppb treatment was made up of 30 ppb of the element from each of the five compounds in question.

[4] = FOXO4KD cells, 75 ppb and 150 ppb, 24 hours
[5] = control KD cells, 75 ppb and 150 ppb, 24 hours

Structure (SMILES)	PGC-1α protein levels (normalized by ACTB) (PGC-1α)	UCP2 mRNA expression (UCP2)	NICASTRIN protein levels (NICASTRIN [1])	NICASTRIN mRNA expression (NICASTRIN [2]; [4])	NICASTRIN mRNA expression, dose-response study (NICASTRIN [2]; IMR-32 cells, 150 ppb, 24 hours)	NICASTRIN mRNA expression (NICASTRIN [2]; IMR-32 cells, 6 hours)	NICASTRIN mRNA expression (NICASTRIN [2]; IMR-32 cells, 24 hours)	NICASTRIN mRNA expression (NICASTRIN [2]; [5])	GSK3B mRNA expression (GSK3B; [4])	GSK3B mRNA levels (GSK3B; 75 ppb and 150 ppb, 24 hours)	GSK3B mRNA levels (GSK3B; 150 ppb, 6 hours)	GSK3B mRNA expression (GSK3B; [5])	RCAN1.1 protein levels (RCAN1.1)	Viable Cell Number (Mean ± SEM, n = 6) [3]
C[Se]C[C@H]1O[C@@H](n2cnc3c(N)ncnc32)C(O)C1O (stereo in doubt) [Compound C, 5′-deoxy-5′-methylselenoadenosine]	increase; also recorded: elevated	significant decrease; also recorded: inhibited	significant reduction	not significantly altered	significantly inhibit	trend towards reduced	significant decrease	inhibited	not in FOXO4KD cells	significantly downregulated	significantly decreased	attenuated	decrease	101.1 ± 4.22
C[Se]C[C@H](NC(=O)CC[C@H](N)C(=O)O)C(=O)O [Compound E, γ-L-glutamyl-Se-methyl-L-selenocysteine]	increase	did not have any effect	trend towards reduced	–	–	–	stimulated	–	–	–	did not significantly inhibit	–	not Compound E	95.69 ± 10.53
